Reference: patent US10399966B2, “Compounds for treatment of trypanosomes and neurological pathogens and uses thereof” (The University of North Carolina at Chapel Hill, priority 2016, dated 2019)
Like-named read-outs stand apart in the source and are kept apart here.

Tests used:
[1] = Mouse oral pharmacokinetics; assay type: in vivo
Experimental: […] Experiments were performed with groups of three mice per compound. Plasma was separated and extracted with acetonitrile for measurements of compound concentrations by liquid chromatography/tandem mass spectrometry.

[2] = system: Trypanosoma cruzi; assay: Efficacy against T. cruzi in vitro; assay type: cell-based
[3] = Efficacy PK blood samples, chronic model; assay type: in vivo, mouse; conditions: 50 mg/kg po b.i.d.
Experimental: In a model of the chronic phase of HAT, compound 1 was administered to five mice infected with T. b. brucei TREU667 at 50 mg/kg/po b.i.d.×10 days, beginning 21 days post-infection. […] Efficacy PK blood samples were collected from three of the five mice prior to dose 15, and at 1 h and 6 h post-dose. Average plasma levels of the test compound were 15.8±8.7 μM (pre-dose), […] (1 h), and 26.7±7.1 μM (6 h). Compound 1 attained 5/5 cures as determined by the absence of detectable parasitemia in any of the treated mice through 180 days post-infection (FIG. 2). No mice receiving vehicle alone had spontaneous cures.

[4] = system: human lymphocytes CRL-8155; assay: Cytotoxicity against CRL-8155 cells
Experimental: The selectivity of each compound for the parasite over each of the two cell lines was calculated.

SMILES: O=C(Nc1ccc2sc(-c3ccc(F)c(F)c3)nc2c1)N1CC[C@H](F)C1 [Compound 1, (S)-2-(3,4-Difluorophenyl)-5-(3-fluoro-N-pyrrolidylamido)benzothiazole]
- Mouse oral PK Tlast ([1]; Table 5): 1440 min
- Mouse oral PK Average AUC ([1]; Table 5, n = 3): 13217 ± 2156 (n = 3) min * μmol/L
- AUC0 min-∞ ([1]; Table 13, mice, single 50 mg/kg oral gavage, vehicle Phosal 53 MCT(60%), PEG400 (30%), EtOH (10%)): 14673 ± 2833 µM·min
- Cmax ([1]; Table 13, mice, single 50 mg/kg oral gavage, vehicle Phosal 53 MCT(60%), PEG400 (30%), EtOH (10%), read-out: Cmax): 18.6 ± 5.54 µM
- Cmax ([1]; Table 13, mice, single 50 mg/kg oral gavage, vehicle Tween 80 (7%), EtOH (3%), DMSO (5%) in 0.9% NaCl, ± SEM of 3 mice, 50 mg/kg, read-out: Cmax): 23.3 µM
- AUC0 min-∞ ([1]; Table 13, mice, single 50 mg/kg oral gavage, vehicle methylcellulose cP 400 (0.5%), Tween 80 (0.5%) in water): 6352 ± 469 µM·min
- Cmax ([1]; Table 13, mice, single 50 mg/kg oral gavage, vehicle methylcellulose cP 400 (0.5%), Tween 80 (0.5%) in water, read-out: Cmax): 8.54 ± 0.41 µM
- percent of the Cmax remaining ([1]; mouse oral 50 mg/kg, 24 h time point): Less than 1%
- Cmax ([1]; mouse, plasma, po, 50 mg/kg, Table 5, n = 3, read-out: Mouse oral PK Average Cmax): 23.3 ± 5.22 µM
- Tmax ([1]; mouse, plasma, po, 50 mg/kg, Table 5, read-out: Mouse oral PK Tmax (converted)): 2 h
- EC50 ([2]; Table 1, Trypanosoma cruzi, read-out: EC50): 118 nM
- EC90 ([2]; Table 1, Trypanosoma cruzi, read-out: EC90): 178 nM
- EC50 ([2]; Trypanosoma cruzi, Table 6, read-out: T. cruzi EC50): 58.5 nM
- EC50 ([2]; Trypanosoma cruzi, Table 10, read-out: T.cruzi EC50): 118 nM
- EC90 ([2]; Trypanosoma cruzi, Table 10, read-out: T.cruzi EC90): 178 nM
- Average plasma levels ([3]; 1 h post dose 15): 23.1 ± 603 µM
- Average plasma levels ([3]; 6 h post dose 15): 26.7 ± 7.1 µM
- Average plasma levels ([3]; prior to dose 15 (pre-dose)): 15.8 ± 8.7 µM
- toxicity to the CRL-8155 cells (in words) [4]: no detectable toxicity
- EC50 ([4]; read-out: CRL-8155 EC50, concentration required to inhibit growth by 50%, human lymphoblasts): > 50000 nM
- EC90 ([4]; read-out: CRL-8155 EC90, concentration required to inhibit growth by 90%, human lymphoblasts): > 50000 nM
